Data as given in patent US4003887A, “Novel penicillins and their preparation” (Sumitomo Chemical Company, Limited, priority 1972, dated 1977).
In brackets after ≈: the same amount, converted by molar mass.

How the values were obtained:
[1] = test system: gram-positive and gram-negative bacteria; conditions: literature, words; cited from earlier work
Pseudomonas = conditions: literature, words; cited from earlier work
[2] = test system: Klebsiella pneumoniae PC1602; test: Minimal inhibitory concentration, agar dilution method; assay type: cell-based
Description: When determined according to the agar dilution method, the penicillins (I) afford the minimal inhibitory concentrations against test microorganisms as shown in Table 2.

| Compound | MIC [2] [µg/mL] | also measured |
| --- | --- | --- |
| 6 -(α-amino-isothiazolylacetamido)penicillanic acid | – | inhibition of growth of gram-positive and gram-negative bacteria [1]: inhibit the growth of various gram-positive and gram-negative bacteria; antimicrobial activity against Pseudomonas (Pseudomonas): do not exert any appreciable antimicrobial activity against Pseudomonas |
| 6-(α-amino-thienylacetamido)penicillanic acid | – | inhibition of growth of gram-positive and gram-negative bacteria [1]: inhibit the growth of various gram-positive and gram-negative bacteria; antimicrobial activity against Pseudomonas (Pseudomonas): do not exert any appreciable antimicrobial activity against Pseudomonas |
| CC1(C)S[C@@H]2[C@H](NC(=O)C(NC(=O)c3cnc4cccnc4c3O)c3ccc(O)cc3)C(=O)N2[C@H]1C(=O)O (mixture of isomers) [Example 2, DL-α-(4-hydroxy-1,5-naphthyridine-3-carboxamido)-p-hydroxybenzylpenicillin] | 25 | – |
| CC1(C)S[C@@H]2[C@H](NC(=O)C(NC(=O)c3cnc4ccccc4c3O)c3ccc(O)cc3)C(=O)N2[C@H]1C(=O)O (mixture of isomers) [Example 6, DL-α-(4-hydroxyquinoline-3-carboxamido)-p-hydroxybenzylpenicillin] | 25 | – |
| CC1(C)S[C@@H]2[C@H](NC(=O)C(C(=O)O)c3ccccc3)C(=O)N2[C@H]1C(=O)O (stereo partly drawn) [Carbenicillin, reference compound] | > 200 | – |
| CC1(C)S[C@@H]2[C@H](NC(=O)[C@H](NC(=O)c3nnc4ccccc4c3O)c3ccc(O)cc3)C(=O)N2[C@H]1C(=O)O [Example 8, D-α-(4-hydroxycinnoline-3-carboxamido)-p-hydroxybenzylpenicillin] | 25 (≈ 46.5 µM) | – |
| CCOC(=O)Oc1ccc([C@@H](NC(=O)c2cnc3ccccc3c2OC(=O)OCC)C(=O)N[C@@H]2C(=O)N3[C@@H]2SC(C)(C)[C@@H]3C(=O)O)cc1 [Example 12] | 25 (≈ 36.7 µM) | – |
| CC1(C)S[C@@H]2[C@H](NC(=O)[C@H](NC(=O)c3cnc4ccccc4c3O)c3cccc(O)c3)C(=O)N2[C@H]1C(=O)O [Example 13] | 25 (≈ 46.6 µM) | – |
| CC1(C)S[C@@H]2[C@H](NC(=O)[C@H](NC(=O)c3cnc4ccccc4c3O)c3ccc(O)c(Cl)c3)C(=O)N2[C@H]1C(=O)O [Example 14] | 25 (≈ 43.8 µM) | – |
| CC1(C)S[C@@H]2[C@H](NC(=O)C(NC(=O)c3cnc4cccnc4c3O)c3cccc(O)c3)C(=O)N2[C@H]1C(=O)O (stereo partly drawn) [Example 16] | 25 (≈ 46.5 µM) | – |
| CCOC(=O)Oc1ccc([C@@H](NC(=O)c2cnc3ccc(NC(C)=O)nc3c2O)C(=O)N[C@@H]2C(=O)N3[C@@H]2SC(C)(C)[C@@H]3C(=O)O)cc1 [Example 23] | 25 (≈ 37.5 µM) | – |
| CC1(C)S[C@@H]2[C@H](NC(=O)C(NC(=O)c3cnc4cccnc4c3O)c3cccc(O)c3)C(=O)N2[C@H]1C(=O)O (stereo partly drawn) [Example 26] | – | Minimal inhibitory concentration [2]: 25 µg/mL (≈ 46.5 µM) |
| CC1(C)S[C@@H]2[C@H](NC(=O)[C@H](NC(=O)c3cnc4ccncc4c3O)c3ccc(O)cc3)C(=O)N2[C@H]1C(=O)O [Example 29] | 25 (≈ 46.5 µM) | – |
| CC1(C)S[C@@H]2[C@H](NC(=O)[C@H](NC(=O)c3cnc4cccnc4c3O)c3ccc(O)c(Cl)c3)C(=O)N2[C@H]1C(=O)O [Example 32] | 25 (≈ 43.7 µM) | – |
| CCOC(=O)Oc1ccc([C@@H](NC(=O)c2cnc3c(OC)nc(OC)nc3c2O)C(=O)N[C@@H]2C(=O)N3[C@@H]2SC(C)(C)[C@@H]3C(=O)O)cc1 [Example 36] | 25 (≈ 37.3 µM) | – |
| CCOC(=O)Oc1ccc([C@@H](NC(=O)c2cnc3cccnc3c2OC(=O)OCC)C(=O)N[C@@H]2C(=O)N3[C@@H]2SC(C)(C)[C@@H]3C(=O)O)cc1 [Example 37] | 12.5 (≈ 18.3 µM) | – |
| CC1(C)S[C@@H]2[C@H](NC(=O)C(NC(=O)c3cnc4cccnc4c3S)c3cc(Cl)c(O)c(Cl)c3)C(=O)N2[C@H]1C(=O)O (stereo partly drawn) [Example 40] | 25 (≈ 40.2 µM) | – |
| COc1cnc2c(O)c(C(=O)N[C@@H](C(=O)N[C@@H]3C(=O)N4[C@@H]3SC(C)(C)[C@@H]4C(=O)O)c3ccc(O)cc3)cnc2n1 [Example 41] | 25 (≈ 44 µM) | – |
| CCOC(=O)Oc1ccc([C@@H](NC(=O)c2cnc3scnc3c2O)C(=O)N[C@@H]2C(=O)N3[C@@H]2SC(C)(C)[C@@H]3C(=O)O)cc1 [Example 42] | 12.5 (≈ 20.3 µM) | – |
| CC1(C)S[C@@H]2[C@H](NC(=O)C(NC(=O)c3ccccn3)c3ccccc3)C(=O)N2[C@H]1C(=O)O (stereo partly drawn) [R, reference compound] | – | Minimal inhibitory concentration [2]: 50 µg/mL (≈ 110 µM) |

More lines, main results first:

| MIC [2] [µg/mL] | Compound | also measured |
| --- | --- | --- |
| 3.13 | CCOC(=O)Oc1ccc(C(NC(=O)c2cnc3ccc(N(C)C)nc3c2O)C(=O)N[C@@H]2C(=O)N3[C@@H]2SC(C)(C)[C@@H]3C(=O)O)cc1 (mixture of isomers) [Example 3, DL-α-(4-hydroxy-6-dimethylamino-1,5-naphthyridine-3-carboxamido)-p-ethoxycarbonyloxybenzylpenicillin] | – |
| 12.5 (≈ 23.3 µM) | CC1(C)S[C@@H]2[C@H](NC(=O)[C@H](NC(=O)c3cnc4cccnc4c3O)c3ccc(O)cc3)C(=O)N2[C@H]1C(=O)O [Example 1, D-α-(4-hydroxy-1,5-naphthyridine-3-carboxyamido)-p-hydroxybenzylpenicillin] | – |
| 12.5 (≈ 20.1 µM) | CC(C)(C)C(=O)Oc1ccc([C@@H](NC(=O)c2cnc3ccccc3c2O)C(=O)N[C@@H]2C(=O)N3[C@@H]2SC(C)(C)[C@@H]3C(=O)O)cc1 [Example 4, D-α-(4-hydroxyquinoline-3-carboxamido)-p-pivaloyloxybenzylpenicillin] | – |
| 12.5 (≈ 16.8 µM) | CCOC(=O)Oc1c(C(=O)N[C@@H](C(=O)N[C@@H]2C(=O)N3[C@@H]2SC(C)(C)[C@@H]3C(=O)O)c2ccc(OC(=O)OCc3ccccc3)cc2)cnc2cccnc12 [Example 5, D-α-(4-ethoxycarbonyloxy-1,5-naphthyridine-3-carboxamido)-p-benzyloxycarbonyloxybenzylpenicillin] | – |
| 12.5 (≈ 22.7 µM) | Cc1ccc2c(O)c(C(=O)N[C@@H](C(=O)N[C@@H]3C(=O)N4[C@@H]3SC(C)(C)[C@@H]4C(=O)O)c3ccc(O)cc3)cnc2n1 [Example 7, D-α-(4-hydroxy-7-methyl-1,8-naphthyridine-3-carboxamido)-p-hydroxybenzylpenicillin] | – |
| 12.5 (≈ 20.5 µM) | CCOC(=O)Oc1ccc([C@@H](NC(=O)c2cnc3cccnc3c2O)C(=O)N[C@@H]2C(=O)N3[C@@H]2SC(C)(C)[C@@H]3C(=O)O)cc1 [Example 9, D-α-(4-hydroxy-1,5-naphthyridine-3-carboxamido)-p-ethoxycarbonyloxybenzylpenicillin] | – |
| 3.13 (≈ 4.87 µM) | CCOC(=O)Oc1ccc([C@@H](NC(=O)c2cnc3cc(Cl)ccc3c2O)C(=O)N[C@@H]2C(=O)N3[C@@H]2SC(C)(C)[C@@H]3C(=O)O)cc1 [Example 10] | – |
| 0.78 (≈ 1.29 µM) | CC1(C)S[C@@H]2[C@H](NC(=O)[C@H](NC(=O)c3cnc4cc(C(F)(F)F)ccc4c3O)c3ccc(O)cc3)C(=O)N2[C@H]1C(=O)O [Example 11] | – |
| 12.5 (≈ 20 µM) | CCOC(=O)Oc1ccc([C@@H](NC(=O)c2cnc3nc(C)ccc3c2O)C(=O)N[C@@H]2C(=O)N3[C@@H]2SC(C)(C)[C@@H]3C(=O)O)cc1 [Example 15] | – |
| 3.13 (≈ 4.77 µM) | CCOC(=O)Oc1ccc([C@@H](NC(=O)c2cnc3ccc(SC)nc3c2O)C(=O)N[C@@H]2C(=O)N3[C@@H]2SC(C)(C)[C@@H]3C(=O)O)cc1 [Example 17] | – |
| 12.5 (≈ 22.7 µM) | Cc1ccc2ncc(C(=O)N[C@@H](C(=O)N[C@@H]3C(=O)N4[C@@H]3SC(C)(C)[C@@H]4C(=O)O)c3ccc(O)cc3)c(O)c2n1 [Example 18] | – |
| 12.5 (≈ 22 µM) | COc1ccc2ncc(C(=O)N[C@@H](C(=O)N[C@@H]3C(=O)N4[C@@H]3SC(C)(C)[C@@H]4C(=O)O)c3ccc(O)cc3)c(O)c2n1 [Example 19] | – |
| 3.13 (≈ 4.79 µM) | CCOC(=O)Oc1ccc([C@@H](NC(=O)c2cnc3cc([N+](=O)[O-])ccc3c2O)C(=O)N[C@@H]2C(=O)N3[C@@H]2SC(C)(C)[C@@H]3C(=O)O)cc1 [Example 20] | – |
| 12.5 (≈ 22.6 µM) | CC1(C)S[C@@H]2[C@H](NC(=O)[C@H](NC(=O)c3cnc4ccc(O)nc4c3O)c3ccc(O)cc3)C(=O)N2[C@H]1C(=O)O [Example 22] | – |
| 12.5 (≈ 22.6 µM) | CC1(C)S[C@@H]2[C@H](NC(=O)[C@H](NC(=O)c3cnc4ccc(N)nc4c3O)c3ccc(O)cc3)C(=O)N2[C@H]1C(=O)O [Example 24] | – |
| 12.5 (≈ 18.2 µM) | CCOC(=O)Oc1ccc([C@@H](NC(=O)c2cnc3ccc(N(C)C)nc3c2O)C(=O)N[C@@H]2C(=O)N3[C@@H]2SC(C)(C)[C@@H]3C(=O)O)cc1Cl [Example 25] | – |
| 12.5 (≈ 23.3 µM) | CC1(C)S[C@@H]2[C@H](NC(=O)[C@H](NC(=O)c3cc4ccccc4nc3O)c3ccc(O)cc3)C(=O)N2[C@H]1C(=O)O [Example 27] | – |
| 12.5 (≈ 20.9 µM) | COc1nc(OC)c2c(O)c(C(=O)N[C@@H](C(=O)N[C@@H]3C(=O)N4[C@@H]3SC(C)(C)[C@@H]4C(=O)O)c3ccc(O)cc3)cnc2n1 [Example 28] | – |
| 12.5 (≈ 18.3 µM) | CC(C)COC(=O)Oc1ccc([C@@H](NC(=O)c2cnc3nc(N(C)C)ncc3c2O)C(=O)N[C@@H]2C(=O)N3[C@@H]2SC(C)(C)[C@@H]3C(=O)O)cc1 [Example 30] | – |
| 12.5 (≈ 22.1 µM) | Cc1nc(C)c2c(O)c(C(=O)N[C@@H](C(=O)N[C@@H]3C(=O)N4[C@@H]3SC(C)(C)[C@@H]4C(=O)O)c3ccc(O)cc3)cnc2n1 [Example 31] | – |
| 12.5 (≈ 20.9 µM) | CCOC(=O)Oc1ccc([C@@H](NC(=O)c2cnc3cn[nH]c3c2O)C(=O)N[C@@H]2C(=O)N3[C@@H]2SC(C)(C)[C@@H]3C(=O)O)cc1 [Example 33] | – |
| 12.5 (≈ 23.2 µM) | CC1(C)S[C@@H]2[C@H](NC(=O)[C@H](NC(=O)c3cnc4cncnc4c3O)c3ccc(O)cc3)C(=O)N2[C@H]1C(=O)O [Example 34] | – |
| 12.5 (≈ 22.1 µM) | Cc1nc(C)c2ncc(C(=O)N[C@@H](C(=O)N[C@@H]3C(=O)N4[C@@H]3SC(C)(C)[C@@H]4C(=O)O)c3ccc(O)cc3)c(O)c2n1 [Example 35] | – |
| 6.25 (≈ 9.35 µM) | CCOC(=O)Oc1ccc([C@@H](NC(=O)c2cnc3cc4c(cc3c2S)OCO4)C(=O)N[C@@H]2C(=O)N3[C@@H]2SC(C)(C)[C@@H]3C(=O)O)cc1 [Example 38] | – |
| 6.25 (≈ 9.99 µM) | CCOC(=O)Oc1ccc([C@@H](NC(=O)c2cnc3cccnc3c2S)C(=O)N[C@@H]2C(=O)N3[C@@H]2SC(C)(C)[C@@H]3C(=O)O)cc1 [Example 39] | – |
| 6.25 (≈ 11.3 µM) | CC1(C)S[C@@H]2[C@H](NC(=O)[C@H](NC(=O)c3cnc4cccnc4c3S)c3ccc(O)cc3)C(=O)N2[C@H]1C(=O)O [Example 43] | – |
